# Test system: 3-day biofilm (plaque biofilm)
# Assay: in vitro plaque glycolysis model (iPGRM): acid production and acid (glycolysis) inhibition
# Type: cell-based, plaque microorganisms from pooled human saliva
# Settings: TABLE 2; 2 min treatment, slurry in water (1:5)
# Procedure: Acid Production and Acid Inhibition [%]
# Acid production and acid inhibition were determined with the in vitro plaque glycolysis model (iPGRM). The purpose of this technique is to provide a simple and quick method for determining if compounds have an influence on the metabolic pathways that plaque microorganisms utilize to produce toxins that adversely affect gingival health.
# The in vitro plaque glycolysis model (iPGRM) is a technique in which plaque is grown from human saliva and treated with various agents to determine anti-glycolytic activity of treatments. When bacteria convert sugar into energy with the help of enzymes, acids are formed. These acids demineralize and damage the dental enamel. The purpose of this technique is to provide a simple and quick method for determining if treatment compounds have an inhibitory effect on the metabolic pathways that plaque microorganisms utilize for the production of acids or toxins and/or inhibit their growth. […]
# […] The pH of the media solutions was then measured to determine the amount of glycolysis inhibition relative to a negative control.
# On Day 1, new glass rods (5 mm×90 mm) were polished approximately 25 mm from the un-tapered end on a lathe with silicon carbide paper of 240, 320, 400, and 600 grit used sequentially. […] After polishing, rods were stored until ready to run test. […]
compound,measurement,value
[H]/N=C(\N/C(=N/[H])NCCCCCCNC(=N)NC(=N)Nc1ccc(Cl)cc1)Nc1ccc(Cl)cc1 [Chlorhexidine],"Acid Production (ΔpH), Mean",0.30
